US20120208781A1, “AMINOGLYCOSIDE DOSING REGIMENS” (Achaogen, Inc., priority 2009, published 2012)
Values after ≈ are worked out from the molar mass of the structure shown. Read-outs that look alike come from different tables or passages of the source.

Experiments:
Klebsiella = assay: MIC, further Brooklyn patient isolates: Klebsiella; assay type: cell-based; design: unit not given beside the values; conditions: Klebsiella (n = 1151)
Protocol: (§1) Minimum inhibitory concentrations (MIC) were determined by reference Clinical and Laboratory Standards Institute (CLSI) broth microdilution methods per M7-A7 [2006]. Briefly, serial two-fold dilutions of Compound 1 and comparator AGs (together, “the test compounds”) were prepared at 2× concentration in appropriate diluent. The dilutions were mixed in 96-well assay plates with bacterial inoculum. Bacteria were suspended in sterile saline and added to each assay plate to obtain a final concentration of 5.5×10^5 CFU/mL. The plates were incubated at 35° C. for 20 hours in ambient air. […] After incubation, assay plates were read using a microtiter plate reader at 600 nm.
(§2) Further studies analyzed a greater number of unique patient isolates obtained from Brooklyn, N.Y. hospitals (including those species described above). These species included Acinetobacter, E. coli, Enterobacter, Klebsiella, and Pseudomonas.

Enterobacter = assay: MIC, further Brooklyn patient isolates: Enterobacter; assay type: cell-based; design: unit not given beside the values; conditions: Enterobacter (n = 206)
Protocol: as §1, §2

E. coli = assay: MIC, further Brooklyn patient isolates: E. coli; assay type: cell-based; design: unit not given beside the values; conditions: E. coli (n = 3071)
Protocol: as §1, §2

rat kidney [1] = assay: Rat nephrotoxicity model: serum markers of GFR (BUN, serum creatinine); assay type: in vivo, Sprague-Dawley rats; conditions: dose-response for BUN elevation
P. aeruginosa (PA) = assay: MIC, broth microdilution, Brooklyn hospital isolates: P. aeruginosa; assay type: cell-based; conditions: PA (n = 33)
Protocol: (§3) In another study, the activity of Compound 1 against a collection of contemporary Gram-negative bacteria was determined. Unique patient isolates of P. aeruginosa (PA), A. baumannii (AB), K. pneumoniae (KP), E. coli (EC), and Enterobacter spp. (EB) from prior surveys at 16 Brooklyn, N.Y. hospitals were selected based on resistance patterns. The majority of isolates were fingerprinted by automated ribotyping. MICs were performed by broth microdilution. PCR was used to identify aminoglycoside-modifying enzymes (AMEs) in AB and KP and the KPC gene in Enterobacteriaceae (EN). The expression of the efflux genes mexA, C, E and X in PA, and adeB in AB was assessed by real-time RT-PCR.

E. coli (EC) = assay: MIC, broth microdilution, Brooklyn hospital isolates: E. coli; assay type: cell-based; conditions: EC (n = 32)
Protocol: as §3

A. baumannii (AB) = assay: MIC, broth microdilution, Brooklyn hospital isolates: A. baumannii; assay type: cell-based; conditions: AB (n = 38)
Protocol: as §3

hearing function = conditions: guinea pig, in vivo
Protocol: The ototoxicity of aminoglycosides was investigated in 28-day studies in guinea pigs (executed at MPI Research Inc., Mattawan, Mich.). […] Animals assigned to the study had body weights within ±20% of the mean body weight. The vehicle and positive control articles were administered daily for 14 days during the study via bolus subcutaneous injection in the scapular region on the back of each animal. The control group received the vehicle in the same manner as the treated groups. Individual doses were based on the most recent body weights. […] The dose levels for these studies were selected based upon published accounts of aminoglycoside ototoxicity in the guinea pig using similar dosing regimes (e.g., Brummett, A. R. et al., J. Antimicrob Chemother, 1978 May; 4 Suppl A:73-83; Kitasato, I. et al., Chemotherapy, 1990; 36(2):155-68). Doses were chosen to maximize exposure while avoiding significant nephrotoxicity, which would have confounded the analysis given that aminoglycosides are renally cleared.
Clinical observations were conducted predose (Day 1), immediately following the completion of each vehicle or positive control article administration on dosing days, and daily thereafter. Body weights were measured and recorded predose (Day 1) and daily thereafter. Physical examinations were conducted pretest and on Day 28.
Bilateral in-vivo electrophysiology (auditory brainstem response) examinations were conducted pretest and prior to the terminal necropsy. Hearing function changes were measured by comparing auditory brainstem response (ABR) values at the end of the study period versus pre-dosing values of each individual animal. […] Additional ketamine and xylazine were administered as necessary. […] Following ABR evaluations, yohimbine (1 mg/kg) was administered via intraperitoneal (IP) injection as a reversal agent. At study termination (Day 29), necropsy examinations were performed, and designated tissues were collected, examined and rated, and preserved for processing and histopathological evaluation, as described below.

K. pneumoniae (KP) = assay: MIC, broth microdilution, Brooklyn hospital isolates: K. pneumoniae; assay type: cell-based; conditions: KP (n = 71)
Protocol: as §3

cochlear hair cells = assay: Cytocochleogram analysis in 28-day guinea pig ototoxicity model; assay type: in vivo, guinea pigs; conditions: guinea pigs
Protocol: Following euthanasia and whole body intravascular perfusion with 4% paraformaldehyde, the temporal bones of the left and right ears were removed. Gross middle ear assessments were performed using a dissecting microscope. […] Following gross middle ear assessment, the cochleas of the left ear were fixed by intrascalar perfusion with 4% paraformaldehyde. Cochlea tissues of both ears were placed in 4% paraformaldehyde for approximately 1 hour. Tissues were then transferred to 0.5% paraformaldehyde, stored refrigerated, and shipped on gel packs to the Kresge Hearing Research Institute, Ann Arbor, Mich., for further processing and cytocochleogram analysis.
These guinea pig ototoxicity studies also included microscopic analysis of surgically dissected cochleas from each animal to assess hair cell damage (cytocochleograms). The underlying cause of aminoglycoside related hearing loss is damage to the hair cells of the auditory system after significant accumulation of aminoglycosides in the inner ear. In the cochlea, drug-induced hair cell loss typically progresses from the basal to the apical turns of the cochlea. Perception of high-frequency sounds, a function of the basal hair cells, is lost first; perception of low-frequency sounds, a function of the more apical hair cells, is the last to be lost (Selimoglu, E., Curr Pharm Des. 2007; 13(1):119-26). For obvious reasons, it is impractical to obtain cytocochleograms from each animal prior to dosing, and some hair cell loss is usually observed in control (vehicle dosed) animals in these guinea pig studies. This variability makes it difficult to determine whether hair cell loss observed post-treatment is due to the drug treatment, especially mild hair cell loss, […]

[2] = system: Gram-negative and Gram-positive clinical isolates; assay: MIC, CLSI broth microdilution, 235 worldwide isolates (all); assay type: cell-based; conditions: 235 isolates
Text: In the first study, a total of 235 isolates were collected from medical centers worldwide and tested for susceptibility to Compound 1 and comparator agents by CLSI broth microdilution methods. […] Non-ENT GN pathogens included WT P. aeruginosa (PSA) and Acinetobacter spp. (ACB), and carbapenem (CARB)-R strains, including those with MBL and OXA enzymes, SA and coagulase-negative staphylococci (CoNS) included oxacillin-susceptible (MSSA/MS-CoNS) and —R (MRSA/MR-CoNS) strains.
as §1

rat kidney [3] = assay: Rat nephrotoxicity model: kidney histopathology (H&E); assay type: in vivo, Sprague-Dawley rats; conditions: rats, 14 d once-daily
Protocol: This rat nephrotoxicity study design used 14 days of once-daily dosing of aminoglycosides in adult Sprague-Dawley rats. Rats were allowed full access to food and water, and aminoglycosides were dosed subcutaneously at 1 mL/kg dosing volume, formulated in water. Nephrotoxicity was assessed by monitoring changes in serum markers of glomerular filtration rate (GFR), namely blood urea nitrogen (BUN) and serum creatinine. Microscopic examination of kidney slices after fixation and hematoxylin and eosin (H&E) staining was also utilized, scoring for tubular dilation, cellular casts, interstitial inflammation, and regenerative changes to the tubules.

Enterobacter spp. (EB) = assay: MIC, broth microdilution, Brooklyn hospital isolates: Enterobacter spp.; assay type: cell-based; conditions: EB (n = 30)
Protocol: as §3

In the case of `C[C@@H](O)[C@H]1C(=O)N2C(C(=O)O)=C(S[C@@H]3CN[C@H](C(=O)N(C)C)C3)[C@H](C)[C@H]12` [MEM, meropenem], the MIC50 (Klebsiella) is reported as “≦0.125”, the MIC50 (Enterobacter) is reported as “≦0.125” and the MIC50 (E. coli) is reported as “≦0.125”. The MIC90 (E. coli) was “≦0.125”.
`NCC[C@H](O)C(=O)N[C@@H]1C[C@H](N)[C@@H](O[C@H]2O[C@H](CN)[C@@H](O)[C@H](O)[C@H]2O)[C@H](O)[C@H]1O[C@H]1O[C@H](CO)[C@@H](O)[C@H](N)[C@H]1O` [amikacin] was tested, and the “apparent relative nephrotoxicity (ranking)” value (rat kidney [1]) was “Neomycin≈Gentamicin>Tobramycin>Apramycin≈Paromomycin>Amikacin”, the Susceptible (P. aeruginosa (PA)) was 94% and the MIC50 (P. aeruginosa (PA); Pseudomonas aeruginosa) was 4 mg/L (≈ 6.83 µM). For the same compound, the MIC90 (P. aeruginosa (PA); Pseudomonas aeruginosa) was 16 mg/L (≈ 27.3 µM), the Susceptible (E. coli (EC)) was 91% and the MIC50 (E. coli (EC); Escherichia coli) was 4 mg/L (≈ 6.83 µM). For the same compound, the MIC90 (E. coli (EC); Escherichia coli) was 16 mg/L (≈ 27.3 µM), the Susceptible (A. baumannii (AB)) was 82% and the MIC50 (A. baumannii (AB); Acinetobacter baumannii) was 8 mg/L (≈ 13.7 µM). For the same compound, the MIC90 (A. baumannii (AB); Acinetobacter baumannii) was 64 mg/L (≈ 109 µM), the “clinical observations, body weights, physical examinations, macroscopic observations” value (hearing function) was “no vehicle or positive control article-related changes in any dose group” and the “number of animals with hearing loss” value (hearing function; male, Crl:HA (Albino Hartley), 75 mg/kg, 14 days) was 1 of 6. The “number of animals with hearing loss” value (hearing function; male, Crl:HA (Albino Hartley), 150 mg/kg, 14 days) was 2 of 6, the ABR threshold shift (hearing function; male, Crl:HA (Albino Hartley), 300 mg/kg/day, 14 days) was > 15 dB and the “hearing loss (ABR threshold changes)” value (hearing function; male, Crl:HA (Albino Hartley), sc, 300 mg/kg, 14 days) was “hearing losses from moderate at 4 kHz, to severe at 10 kHz, and to profound at 20 kHz”. For the same compound, the Susceptible (K. pneumoniae (KP)) was 58%, the MIC50 (K. pneumoniae (KP); Klebsiella pneumoniae) was 16 mg/L (≈ 27.3 µM) and the MIC90 (K. pneumoniae (KP); Klebsiella pneumoniae) was 64 mg/L (≈ 109 µM). The “animals with minimal loss of outer hair cells” value (cochlear hair cells; 75 mg/kg/day) was 3/6, the “animals with minimal loss of outer hair cells” value (cochlear hair cells; 150 mg/kg/day) was 3/6 and the “animals with large loss of outer hair cells” value (cochlear hair cells; 300 mg/kg/day) was “All animals”. For the same compound, the “animals with some loss of inner hair cells” value (cochlear hair cells; 300 mg/kg/day) was 3/6, the “overall sensitivity (S)” value [2] was 77.0% and the “Histopathology score (0 to 5 Scale): Casts” value (“Histopathology score … Casts” for short) (rat kidney [3]; 10 mg/kg) was 0 +/− 0. The “Histopathology score (0 to 5 Scale): Dilation” value (from here on “Histopathology score … Dilation”) (rat kidney [3]; 10 mg/kg) was 0.2 +/− 0.4, the “Histopathology score (0 to 5 Scale): Inflammation” value (rat kidney [3]; 10 mg/kg) was 0.4 +/− 0.5 and the “Histopathology score (0 to 5 Scale): Regeneration” value (rat kidney [3]; 10 mg/kg) was 0.2 +/− 0.4. The “Histopathology score … Casts” value (rat kidney [3]; 30 mg/kg) was 0 +/− 0, the “Histopathology score … Dilation” value (rat kidney [3]; 30 mg/kg) was 0 +/− 0 and the “Histopathology score (0 to 5 Scale): Inflammation” value (rat kidney [3]; 30 mg/kg) was 0.4 +/− 0.5. For the same compound, the “Histopathology score (0 to 5 Scale): Regeneration” value (rat kidney [3]; 30 mg/kg) was 0.2 +/− 0.4, the “Histopathology score … Casts” value (rat kidney [3]; 100 mg/kg) was 0 +/− 0 and the “Histopathology score … Dilation” value (rat kidney [3]; 100 mg/kg) was 0.2 +/− 0.4. For the same compound, the “Histopathology score (0 to 5 Scale): Inflammation” value (rat kidney [3]; 100 mg/kg) was 0.6 +/− 0.5, the “Histopathology score (0 to 5 Scale): Regeneration” value (rat kidney [3]; 100 mg/kg) was 0.6 +/− 0.5 and the “Histopathology score … Casts” value (rat kidney [3]; 300 mg/kg) was 0 +/− 0. For the same compound, the “Histopathology score … Dilation” value (rat kidney [3]; 300 mg/kg) was 1.2 +/− 0.8, the “Histopathology score (0 to 5 Scale): Inflammation” value (rat kidney [3]; 300 mg/kg) was 1.2 +/− 0.4 and the “Histopathology score (0 to 5 Scale): Regeneration” value (rat kidney [3]; 300 mg/kg) was 1.4 +/− 0.5. For the same compound, the Susceptible (Enterobacter spp. (EB)) was 93%, the MIC50 (Enterobacter spp. (EB); Enterobacter) was 4 mg/L (≈ 6.83 µM) and the MIC90 (Enterobacter spp. (EB); Enterobacter) was 16 mg/L (≈ 27.3 µM).
